Assay results: patent publication US5710154A, “Tetrahydrofuran antifungals” (Schering Corporation, priority 1995, dated 1998)

Tests used:
Candida albicans = experiment: In vitro antifungal activity, broth dilution (MIC/MFC), Candida albicans; format: cell-based; details: 26 strains
Description: (§1) The in vitro antifungal activity tests were performed via conventional broth dilution methods in Sabouraud dextrose broth ("SDB") medium and Eagles Minimum Essential Medium ("EMEM") against a large number of fungi. Minimum Inhibitory Concentrations ("MICs") were measured after 24, 48 and 72 hour tests. In many cases, Minimum Fungicidial Concentrations ("MFCS") were measured after 48 and 72 hours.

Aspergillus = experiment: In vitro antifungal activity, broth dilution (MIC/MFC), Aspergillus; format: cell-based, Aspergillus (flavus, fumigatus and other species); details: 37 strains
Description: as §1

Candida krusei = experiment: In vitro antifungal activity, broth dilution (MIC/MFC), Candida krusei; format: cell-based; details: 16 strains
Description: as §1

Dermatophytes = experiment: In vitro antifungal activity, broth dilution (MIC/MFC), dermatophytes; format: cell-based, T. rubrum, T. mentagrophytes, and T. tonsurans; details: 6 strains
Cryptococcus neoformans = experiment: In vitro antifungal activity, broth dilution (MIC/MFC), Cryptococcus neoformans; format: cell-based; details: 3 strains
Description: as §1

Candida glabrata = experiment: In vitro antifungal activity, broth dilution (MIC/MFC), Candida glabrata; format: cell-based; details: 9 strains
Description: as §1

[1] = system: Candida tropicalis & stellatoidea; experiment: In vitro antifungal activity, broth dilution (MIC/MFC), Candida tropicalis & stellatoidea; format: cell-based; details: 5 strains
Description: as §1

[2] = Serum levels following oral dosing, monkeys; format: in vivo; details: methyl cellulose formulation, compared to azoles of similar structure
[3] = Serum levels following oral dosing, rats; format: in vivo; details: methyl cellulose formulation, compared to azoles of similar structure
[4] = Serum half life and tissue distribution following O.D. dosing; format: in vivo, mice, rats, dogs and monkeys
[5] = Serum levels following oral dosing, mice; format: in vivo; details: methyl cellulose formulation, compared to azoles of similar structure
[6] = Serum levels following oral dosing, dogs; format: in vivo; details: methyl cellulose formulation, compared to azoles of similar structure

| Structure (SMILES) | Percentage of strains with MFCs ≤1 mcg/ml (Candida albicans) [%] | Percentage of strains with MFCs ≤1 mcg/ml (Aspergillus) [%] | Percentage of strains with MFCs ≤1 mcg/ml (Candida krusei) [%] | Percentage of strains with MFCs ≤1 mcg/ml (Dermatophytes) [%] | Percentage of strains with MFCs ≤1 mcg/ml (Cryptococcus neoformans) [%] | Percentage of strains with MFCs ≤1 mcg/ml (Candida glabrata) [%] | Percentage of strains with MFCs ≤1 mcg/ml [1] [%] | MIC 90 (Minimum Inhibitory Concentrations for 90% of the strains) (Candida krusei) | MIC 90 (Minimum Inhibitory Concentrations for 90% of the strains) (Dermatophytes) | MIC 90 (Minimum Inhibitory Concentrations for 90% of the strains) [1] | other results |
| --- | --- | --- | --- | --- | --- | --- | --- | --- | --- | --- | --- |
| OC(Cn1cncn1)(Cn1cncn1)c1ccc(F)cc1F [fluconazole, reference compound] | 100 | 0 | 0 | 0 | 0 | 0 | 100 | – | – | – | Percentage of strains with MICs ≤1 mcg/ml (Candida albicans): 100%; Percentage of strains with MICs ≤1 mcg/ml (Aspergillus): 0%; Percentage of strains with MICs ≤1 mcg/ml (Candida krusei): 0%; Percentage of strains with MICs ≤1 mcg/ml (Dermatophytes): 100%; Percentage of strains with MICs ≤1 mcg/ml (Cryptococcus neoformans): 0%; Percentage of strains with MICs ≤1 mcg/ml (Candida glabrata): 0%; Percentage of strains with MICs ≤1 mcg/ml [1]: 100% |
| CCC(C(C)O)n1ncn(-c2ccc(N3CCN(c4ccc(OCC5COC(Cn6cncn6)(c6ccc(F)cc6F)C5)cc4)CC3)cc2)c1=O (stereo not drawn) [drawing 21] | – | – | – | – | – | – | – | – | – | – | serum levels [2]: consistently higher serum levels; serum levels [3]: consistently higher serum levels; tissue distribution [4]: good tissue distribution; serum levels [5]: consistently higher serum levels; serum levels [6]: consistently higher serum levels |
| CCC(C(C)O)n1ncn(-c2ccc(N3CCN(c4ccc(OCC5COC(Cn6cncn6)(c6ccc(F)cc6F)C5)cc4)CC3)cc2)c1=O (stereo not drawn) [drawing 28] | 100 | 89 | 100 | 100 | 100 | 22 | 100 | – | – | – | – |
| CCC(C(C)O)n1ncn(-c2ccc(N3CCN(c4ccc(OCC5COC(Cn6cncn6)(c6ccc(F)cc6F)C5)cc4)CC3)cc2)c1=O (stereo not drawn) [drawing 27] | 100 | 62 | 94 | 83 | 100 | 22 | 100 | – | – | – | – |
| CCC(C(C)O)n1ncn(-c2ccc(N3CCN(c4ccc(OCC5COC(Cn6cncn6)(c6ccc(F)cc6F)C5)cc4)CC3)cc2)c1=O (stereo not drawn) [drawing 31] | – | – | – | – | – | – | – | .014 MCG/ML | .101 MCG/ML | .117 MCG/ML | MIC 90 (Minimum Inhibitory Concentrations for 90% of the strains) (Candida albicans): .174 MCG/ML; MIC 90 (Minimum Inhibitory Concentrations for 90% of the strains) (Aspergillus): .096 MCG/ML; MIC 90 (Minimum Inhibitory Concentrations for 90% of the strains) (Cryptococcus neoformans): .007 MCG/ML; MIC 90 (Minimum Inhibitory Concentrations for 90% of the strains) (Candida glabrata): 17.1 MCG/ML |
| CCC(C(C)O)n1ncn(-c2ccc(N3CCN(c4ccc(OCC5COC(Cn6cncn6)(c6ccc(F)cc6F)C5)cc4)CC3)cc2)c1=O (stereo not drawn) [drawing 30] | – | – | – | – | – | – | – | .058 MCG/ML | .165 MCG/ML | .117 MCG/ML | MIC 90 (Minimum Inhibitory Concentrations for 90% of the strains) (Cryptococcus neoformans): .05 MCG/ML |
| CCC(C(C)O)n1ncn(-c2ccc(N3CCN(c4ccc(OCC5COC(Cn6cncn6)(c6ccc(F)cc6F)C5)cc4)CC3)cc2)c1=O (stereo not drawn) [drawing 26] | 100 | 50 | 88 | 67 | 100 | 22 | 100 | – | – | – | – |
| CCC(C(C)O)n1ncn(-c2ccc(N3CCN(c4ccc(OCC5COC(Cn6cncn6)(c6ccc(F)cc6F)C5)cc4)CC3)cc2)c1=O (stereo not drawn) [drawing 32] | – | – | – | – | – | – | – | .12 MCG/ML | .707 MCG/ML | .354 MCG/ML | MIC 90 (Minimum Inhibitory Concentrations for 90% of the strains) (Candida albicans): .139 MCG/ML; MIC 90 (Minimum Inhibitory Concentrations for 90% of the strains) (Aspergillus): .112 MCG/ML; MIC 90 (Minimum Inhibitory Concentrations for 90% of the strains) (Candida glabrata): 28.8 MCG/ML |
